In US20100249461A1, “TRIARYLAMINE DERIVATIVE” (priority 2007, published 2010):

How the values were obtained:
Assay type in all cases: physicochemical
[1] = Heat resistance of PMMA film sample (colorant residual rate); conditions: 5% by weight in PMMA film on PET; 80° C. for 400 hours; absorbance at maximum absorption wavelength after vs before
Experimental: (§1) 2.5 g of PMMA and 0.125 g of the triarylamine derivative were dissolved in 25 ml of dichloromethane, and the solution was coated on a 100 μm-thick PET film. This was dried at 80° C. for 2 hours under reduced pressure to prepare a sample for assessment having a thickness of from 2 to 3 μm. The sample for assessment contained the triarylamine derivative at 5% by weight based on PMMA.
(§2) The sample for assessment obtained above was heat-treated at 80° C. for 400 hours. The absorbance of the assessment sample at the maximum absorption wavelength of the triarylamine derivative (colorant) was measured, and a colorant residual rate (%) was obtained as a ratio of the absorbance after heat treatment relative to the absorbance before heat treatment.

[2] = Wet heat resistance of PMMA film sample (colorant residual rate); conditions: 5% by weight in PMMA film on PET; 60° C. and relative humidity of 90% for 200 hours; absorbance after vs before
Experimental: as §1
as §2, with “subjected to wet heat treatment” for “heat-treated”, “60°” for “80°”, “C. and a relative humidity of 90%” for “C.”, “200” for “400”, “after wet” for “after”, “before wet” for “before”

[3] = Light resistance of PMMA film sample (colorant residual rate); conditions: 5% by weight in PMMA film on PET; xenon lamp 170,000 lux, UV cut filter, 170 hours; absorbance after vs before
Experimental: as §1
as §2, with “irradiation-treated” for “heat-treated at 80° C.”, “170 hours with a xenon lamp (170,000 lux, using an UV cut filter).” for “400 hours.”, “irradiation” for “heat”

[4] = Solubility in 2-butanone (MEK)
Experimental: Solubility (w/v %) of the triarylamine derivative in 2-butanone (MEK) was measured.

| Heat Resistance (colorant residual rate) [1] [%] | Wet Heat Resistance (colorant residual rate) [2] [%] | Light Resistance (colorant residual rate) [3] [%] | Solubility (w/v) [4] [% w/v %] | SMILES |
| --- | --- | --- | --- | --- |
| 80 | 45 | 98 | 16 | CCCCN(CCCC)c1ccc([N+](=C2C=CC(=[N+](CCCC)CCCC)CC2)c2ccc(N(CCCC)CCCC)cc2)cc1 [drawing 14] |
| 0 | 19 | 80 | 15 | CCCCN(CCCC)c1ccc([N+](=C2C=CC(=[N+](CCCC)CCCC)CC2)c2ccc(N(CCCC)CCCC)cc2)cc1 [drawing 15] |
